# Test results published in patent US20220281835A1, “PHENOL DERIVATIVES FOR USE AS ANTIMICROBIAL, ANTIBACTERIAL, BACTERICIDE” (SPECIAL PRODUCT'S LINE S.P.A., priority 2019, published 2022).
# Assays:
# Test in all cases: MIC/MBC broth-dilution (micromethod), CLSI
# Type in all cases: cell-based
# [1] = tested on: S. Aureus strain 1 (collection) mec a+; settings: Staphylococcus aureus; for MIC: marked *: MIC value read at 48 hours; for MBC: kills 99,9% of initial population
# Source text: (§1) Determination of Minimal Inhibitory Concentration (MIC), Minimal Bactericidal Concentration (MBC), bactericidal curves and killing rate on Gram positive and Gram negative bacteria strains, for the evaluation of the bactericidal activity of compounds of example 1 (n. 1 to 14).
# (§2) In details, phenotypic methods based on in vitro MIC and MBC determination have been performed on previously isolated bacterial strains, identified and characterized at the level of their antibiotic susceptibility profile. According to MIC and MBC data, the Killing Rate was calculated as the ratio between MBC and MIC on which basis it is possible to define the compounds tested as bactericides (killing rate=1-4), or bacteriostatic (killing rate >4).
# (§3) Preparation of the solution containing molecules: for each molecule to be tested, solutions were made as DMSO Stock, with a concentration of 2.560 mg/ml, used to test 12 dilutions with the following scalar drug concentrations: 512-256-128-64-32-16-8-4-2-1-0.5-0.25 μg/ml. The scalar dilutions were prepared directly on plates by using Mueller Hinton Broth (MHB) as a solvent.
# Bacterial suspension preparation: cryostrains preserved at −80° C. were recovered by incubation in growth medium (Brain Heart Infusion Broth, BHI) for 24-48 hours at 37° C. followed by passages in agar growth medium (Columbia Blood Agar). Colonies with less than 30 hours are suspended in MHB with the purpose to prepare a bacterial suspension with a turbidity of 0.5 MF, containing approximately 1.5×10^8 cfu/ml. This injection is additionally diluted in MHB until reaching a final concentration of 5×10^5 cfu/ml (range 3-7×10^5 cfu/ml). Identical volumes of this bacterial suspension are added on a plate, for each well containing drug scalar dilutions, to obtain a final concentration between 512 a 0.25 μg/ml. The set up of bacterial suspensions as well as the passage on slate has always been performed within 30 minutes, in order not to alter the concentration of the bacterial suspension. Simultaneously, check in broth-microdilution only with solvent (in order to exclude that the effect of growth inhibition might be due to the drug solution solvent), positive growth control in absence of DMSO and drug, and negative purity control only with injection broth are performed. As a consequence the slate is incubated at 37° C. for 24 and 48 hours in aerobes. […] The same observations are valid to evaluate 48 hours MIC. After the incubation, an equal volume of bacterial suspension from each well is plated on agar growth medium and incubated for 24-48 hours at a temperature of 37° C. in aerobes, in order to define the MBC after the incubation.
# Bacterial strains: the bactericidal and/or bacteriostatic power of the synthesized compounds can be determined by using standard reference strains such as: • 1. S. Aureus ATCC 25923 res kan, tob, res streptogramine (sga-sgb, efflux), res mupirocina (at low level), res trimetoprim; • 2. S. Aureus strain 1 (collection) mec a+, res kan tob gen, res quinolones, lincosamides, res streptogramine (sga-sgb), mlsb+sa constituent, mlsb constituent, res mupirocine (low level), res trimetoprim; • 3. S. Aureus strain 2 (collection) acquired penicillinase, res kan tob, res streptogramine (sga-sgb, efflux), res mupirocine (low level), res trimetoprim; • 4. Enterococcus faecalis ATCC 51299 (str+gen res at high level, mlsb res, simil van b res); • 5. Enterococcus faecalis strain 1 (collection) (str+kan res at high level str res at high level tetracycline res); • 6. Enterococcus faecalis strain 2 (collection) (kan res at high level); • 7. E. coli of Collection: RESISTANT to ampicilline, amox+ac clav, ampicillinr+sulbactam, cefalexine, cefuroxime, cefuroxime axetil, cefixime, cefpodoxime, cefotaxime, ceftazidime, ceftriaxone, netilmicine, tobramicine, ciprofloxcine, trim/sulfametox, esbl pos, SENSITIVE to meropenem and gentamicine, INTERMEDIATE to amikacine; • 8. 8.
# [2] = tested on: Enterococcus faecalis ATCC 51299; settings: ATCC51299, E. FAECALIS ATCC 51299, values without asterisk
# Source text: as §1
# as §2, with “Sensitivity tests have been performed in broth-dilution (micromethod) with the purpose to test the possible bacteriostatic and/or bactericidal power in different compounds, in accordance with CLSI guidelines (Clinical and Laboratory Standards Institute). In” for “In”
# as §3
# (§4) Bacterial suspension preparation: cryostrains preserved at −80° C. were recovered by incubation in growth medium (Brain Heart Infusion Broth, BHI) for 24-48 hours at 37° C. followed by passages in agar growth medium (Columbia Blood Agar). Colonies with less than 30 hours are suspended in MHB with the purpose to prepare a bacterial suspension with a turbidity of 0.5 MF, containing approximately 1.5×10^8 cfu/ml. This injection is additionally diluted in MHB until reaching a final concentration of 5×10^5 cfu/ml (range 3-7×10^5 cfu/ml). Identical volumes of this bacterial suspension are added on a plate, for each well containing drug scalar dilutions, to obtain a final concentration between 512 a 0.25 μg/ml. The set up of bacterial suspensions as well as the passage on slate has always been performed within 30 minutes, in order not to alter the concentration of the bacterial suspension. Simultaneously, check in broth-microdilution only with solvent (in order to exclude that the effect of growth inhibition might be due to the drug solution solvent), positive growth control in absence of DMSO and drug, and negative purity control only with injection broth are performed. As a consequence the slate is incubated at 37° C. for 24 and 48 hours in aerobes. The 24 hours MIC is considered as the minimum drug concentration able to inhibit bacterial growth, which makes it possible to observe the absence of bacterial growth and the absence of turbidity. The same observations are valid to evaluate 48 hours MIC. After the incubation, an equal volume of bacterial suspension from each well is plated on agar growth medium and incubated for 24-48 hours at a temperature of 37° C. in aerobes, in order to define the MBC after the incubation. The MBC is evaluated as the minimum concentration of drug able to kill the 99,9% of the initial bacterial population.
# (§5) Bacterial strains: the bactericidal and/or bacteriostatic power of the synthesized compounds can be determined by using standard reference strains such as: • 1. S. Aureus ATCC 25923 res kan, tob, res streptogramine (sga-sgb, efflux), res mupirocina (at low level), res trimetoprim; • 2. S. Aureus strain 1 (collection) mec a+, res kan tob gen, res quinolones, lincosamides, res streptogramine (sga-sgb), mlsb+sa constituent, mlsb constituent, res mupirocine (low level), res trimetoprim; • 3. S. Aureus strain 2 (collection) acquired penicillinase, res kan tob, res streptogramine (sga-sgb, efflux), res mupirocine (low level), res trimetoprim; • 4. Enterococcus faecalis ATCC 51299 (str+gen res at high level, mlsb res, simil van b res); • 5. […]
# [3] = tested on: Enterococcus faecalis strain 1 (collection); settings: E. FAECALIS strain 1, values without asterisk
# Source text: as §1
# as §2, with “Sensitivity tests have been performed in broth-dilution (micromethod) with the purpose to test the possible bacteriostatic and/or bactericidal power in different compounds, in accordance with CLSI guidelines (Clinical and Laboratory Standards Institute). In” for “In”
# as §3, §4, §5
# [4] = tested on: Enterococcus faecalis strain 2 (collection); settings: for MBC: E. FAECALIS strain 2, kills 99,9% of initial population
# Source text: as §1
# as §2, with “Sensitivity tests have been performed in broth-dilution (micromethod) with the purpose to test the possible bacteriostatic and/or bactericidal power in different compounds, in accordance with CLSI guidelines (Clinical and Laboratory Standards Institute). In” for “In”
# as §3, §4, §5
# S. Aureus ATCC 25923 = settings: Staphylococcus aureus, ATCC25923, marked *: MIC value read at 48 hours
# Source text: as §1
# as §2, with “Sensitivity tests have been performed in broth-dilution (micromethod) with the purpose to test the possible bacteriostatic and/or bactericidal power in different compounds, in accordance with CLSI guidelines (Clinical and Laboratory Standards Institute). In” for “In”
# as §3, §4, §5
# [5] = tested on: S. Aureus strain 2 (collection); settings: Staphylococcus aureus, marked *: MIC value read at 48 hours
# Source text: as §1
# as §2, with “Sensitivity tests have been performed in broth-dilution (micromethod) with the purpose to test the possible bacteriostatic and/or bactericidal power in different compounds, in accordance with CLSI guidelines (Clinical and Laboratory Standards Institute). In” for “In”
# as §3, §4, §5
# [6] = tested on: P. Aeruginosa of collection; settings: Pseudomonas aeruginosa
# Source text: as §1
# as §2, with “Sensitivity tests have been performed in broth-dilution (micromethod) with the purpose to test the possible bacteriostatic and/or bactericidal power in different compounds, in accordance with CLSI guidelines (Clinical and Laboratory Standards Institute). In” for “In”
# as §3, §4, §5
# [7] = E. FAECALIS strain 2, values without asterisk
# [8] = E. FAECALIS strain 2, marked *: MIC value read at 48 hours
Structure (SMILES),MIC [1] [µg/mL],"MIC [4, 8] [µg/mL]",MBC [1] [µg/mL],MBC [4] [µg/mL],further results
"O=C(O)C=Cc1ccc(-c2ccc(OCCCCO)c(C34CC5CC(CC(C5)C3)C4)c2)cc1 [Compound 11, 3-[3′-Adamantan-1-yl-4′-(hydroxy-butoxy)-biphenyl-4-yl]-acrylic acid]",64 to 256,–,–,–,"MIC [2]: 64 µg/mL; MIC [3]: 128 µg/mL; MIC [4, 7]: 128 µg/mL; MIC (S. Aureus ATCC 25923): 128 to 256 µg/mL; MIC [5]: 128 to 256 µg/mL"
"O=C(O)C=Cc1ccc(-c2ccc(O)c(C34CC5CC(CC(C5)C3)C4)c2)c(C=NOCC(=O)O)c1 [Compound 14, 3-[3′-Adamant-1-yl-4′-hydroxy-2-carboxymethoxyiminomethyl-biphenyl-4-yl]-acrylic acid]",64 to 128,64 to 128,–,–,–
"N=C(N)NCc1cc(C=CC(=O)O)ccc1-c1ccc(O)c(C23CC4CC(CC(C4)C2)C3)c1.O=C(O)C(F)(F)F [Compound 15, 3-(3′-Adamantan-1-yl-2-guanidinomethyl-4′-hydroxy-biphenyl-4-yl)-acrylic acid trifluoroacetate]",16 to 32,16 to 32,32 to 64,32 to 64,–
"O=C(O)C=Cc1ccc(-c2cc3c(c(C45CC6CC(CC(C6)C4)C5)c2)OCCO3)cc1 [Compound 16, 3-{4-[8-(Adamantan-1-yl)-2,3-dihydro-benzo[1,4]-dioxin-6-yl]-phenyl}-acrylic acid]",2 to 4,1 to 2,–,–,–

# Further lines, with some results ahead:
MIC [1] [µg/mL],"MIC [4, 8] [µg/mL]",Structure (SMILES),MBC [1] [µg/mL],MBC [4] [µg/mL],further results
4 to 8,2 to 4,"CC(=O)NCc1cc(-c2ccc(/C=C/C(=O)O)cc2)cc(C23CC4CC(CC(C4)C2)C3)c1O [Compound 17, E-3-[3′-(Acetylaminomethyl)-4′-hydroxy-5′-(adamantan-1-yl)biphenyl-4-yl]-acrylic acid]",16,16,–
4 to 8,2 to 4,O=C(O)/C=C/c1ccc(-c2cc(CNC(=O)Nc3ccccc3)c(O)c(C34CC5CC(CC(C5)C3)C4)c2)cc1 [Compound 18],8,16,–
8 to 16,8 to 16,"O=C(O)CCc1ccc(-c2ccc(O)c(C34CC5CC(CC(C5)C3)C4)c2)cc1 [Compound 19, 3-(3′-Adamantan-1-yl-4′-hydroxybiphenyl-4-yl)propionic Acid]",16,32,–
8 to 32,–,"CCCCC/C=C\C/C=C\CCCCCCCC(=O)Oc1ccc(-c2ccc(/C=C/C(=O)O)cc2)cc1C12CC3CC(CC(C3)C1)C2 [Compound 20, (E)-Octadeca-9,12-dienoic acid 3-adamantan-1-yl-40-(2-carboxyvinyl)-biphenyl-4-yl ester]",–,–,"MIC [4, 7]: 128 µg/mL; MIC [6]: 20 µg/mL"
16 to 64,32 to 64,"O=Cc1cc(-c2ccc(/C=C/C(=O)O)cc2)cc(C23CC4CC(CC(C4)C2)C3)c1O [Compound 21, E-3-[3′-Formyl-4′-hydroxy-5′-(adamantan-1-yl)-biphenyl-4-yl]-acrylic acid]",–,–,–
